In this assay the test system is MelaKuits® living skin equivalent models. Put plainly: skin brightening efficacy in UVB-irradiated living skin equivalent models, lightness (L*) by DSM II Color Meter. It counts as cell-based. Here is the method:
The skin brightening efficacy were evaluated by using MelaKuits® living skin equivalent models (Biocell, Xi'an, China). A series of identical living skin equivalent models were constructed by following manufacturer's instruction. After the models were constructed, the models were irradiated by UVB with an energy density of 50 mJ/cm^2, followed by culturing in fresh medium with or without actives for one day. Such irradiating and culturing process were repeated by using refreshed same medium for seven times. The lightness (L*) of each model were measured by using a DSM II Color Meter. The measurements of lightness were repeated at least three times. Similar experiments were conducted as that in Example 1 except that niacinamide was used and different batch of live equivalent models were used. The original lightness of the live equivalent models was different from that in Example 1.

As for `CCCCCCC(O)CCCCCCCCCCC(=O)O` (stereo not drawn) [12-HSA, 12-hydroxystearic acid], the “Average lightness (L*)” value (Example 1 batch, UVB 50 mJ/cm^2, irradiating and culturing repeated seven times, 10 μM of 12-HSA in medium (UVB + medium only 32.4; blank control 43.4)) is recorded as 35.2. Turning to `NC(=O)c1cccnc1` [niacinamide, reference compound], the “Average lightness (L*)” value (Example 2, different batch of models, UVB, 3 wt % of niacinamide in medium (UVB + medium only 66.86; blank control 71.43)) was determined as 71.15. Take Lysine carboxymethyl cysteinate [LCC]: the “improvement of the skin brightening efficacy of niacinamide (in words)” value (LCC 0.27 wt % added to 3 wt % niacinamide, Table 2) is recorded as “not capable of improving the skin brightening efficacy of niacinamide”.
